Assay results from ChEMBL document CHEMBL5550183, “Discovery of Novel 1-Phenylpiperidine Urea-Containing Derivatives Inhibiting β-Catenin/BCL9 Interaction and Exerting Antitumor Efficacy through the Activation of Antigen Presentation of cDC1 Cells” (J Med Chem, 2024).
pIC50, pKd, pKi: −log10 of the molar value.

How the values were obtained:
CT26 [1] = assay: Antitumor activity against mouse CT26 cells implanted in BALB/c mouse assessed as tumor growth inhibition at 30 mg/kg, ip measured for 14 days; format: functional; conditions: CT26, 336 h, time 14 day, read-out: TGI
CT26 [2] = assay: Antitumor activity against mouse CT26 cells implanted in BALB/c mouse assessed as tumor growth inhibition at 30 mg/kg, ip measured for 7 days; conditions: CT26, 168 h, read-out: TGI
CT26 [3] = assay: Antitumor activity against mouse CT26 cells implanted in BALB/c mouse assessed as increase in CD103+ expression level at 30 mg/kg, ip measured for 7 days by flow cytometry analysis (reference value: 4.95%); format: functional; conditions: time 7 day
[4] = Antitumor activity against mouse PBMC cells implanted in BALB/c mouse assessed as increase in CD103 + XCR1 cDC1 expression at 30 mg/kg, ip measured for 7 days by qPCR analysis; format: functional; conditions: time 7 day
cells = conditions: Homo sapiens, HCT-116, 24 h
Description: Inhibition of Wnt/beta-catenin signaling pathway in human HCT-116 cells assessed as reduction in Axin2 expression incubated for 24 hrs by qPCR analysis

in vitro [5] = conditions: mouse, liver microsomes
Description: Metabolic stability in mouse liver microsome assessed as half life preincubated with compound for 10 mins followed by NADPH addition and measured upto 60 mins by LC-MS/MS analysis

in vitro [6] = conditions: mouse, liver microsomes; remark: listed apart in the source
Description: Metabolic stability in mouse liver microsome assessed as clearance preincubated with compound for 10 mins followed by NADPH addition and measured upto 60 mins by LC-MS/MS analysis

[7] = target: T1, beta-catenin-B-cell lymphoma 9 protein complex (Homo sapiens, UniProt P35222); assay: Inhibition of full length his-tagged human beta-catenin (1 to 781 residues) expressed in Escherichia coli DE3/N-terminal FAM-tagged human BCL9 (350 to 375 residues) protein-protein interaction incubated for 2 hrs by fluorescence polarization assay
T1 sequence (P35222 whole entry): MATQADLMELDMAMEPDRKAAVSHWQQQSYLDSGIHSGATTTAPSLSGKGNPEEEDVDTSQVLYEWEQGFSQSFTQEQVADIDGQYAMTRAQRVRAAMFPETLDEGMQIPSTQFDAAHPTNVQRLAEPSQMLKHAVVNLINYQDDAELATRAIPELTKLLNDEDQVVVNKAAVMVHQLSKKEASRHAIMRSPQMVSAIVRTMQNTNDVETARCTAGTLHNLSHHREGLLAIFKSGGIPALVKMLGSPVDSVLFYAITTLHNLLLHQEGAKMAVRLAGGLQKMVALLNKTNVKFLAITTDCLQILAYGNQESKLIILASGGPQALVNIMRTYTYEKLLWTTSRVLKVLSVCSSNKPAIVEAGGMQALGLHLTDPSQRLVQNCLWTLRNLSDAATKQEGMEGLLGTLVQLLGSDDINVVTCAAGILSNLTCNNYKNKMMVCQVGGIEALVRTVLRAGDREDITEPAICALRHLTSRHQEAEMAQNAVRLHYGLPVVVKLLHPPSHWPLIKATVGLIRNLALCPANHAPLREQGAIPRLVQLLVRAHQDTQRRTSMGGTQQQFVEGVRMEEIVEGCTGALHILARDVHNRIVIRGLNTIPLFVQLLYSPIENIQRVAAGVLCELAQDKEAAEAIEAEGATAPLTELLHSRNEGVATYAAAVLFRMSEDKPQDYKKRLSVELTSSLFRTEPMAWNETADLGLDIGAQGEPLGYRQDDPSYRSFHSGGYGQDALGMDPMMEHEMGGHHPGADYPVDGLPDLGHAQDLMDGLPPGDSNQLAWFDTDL
T1 sequence (O00512 whole entry): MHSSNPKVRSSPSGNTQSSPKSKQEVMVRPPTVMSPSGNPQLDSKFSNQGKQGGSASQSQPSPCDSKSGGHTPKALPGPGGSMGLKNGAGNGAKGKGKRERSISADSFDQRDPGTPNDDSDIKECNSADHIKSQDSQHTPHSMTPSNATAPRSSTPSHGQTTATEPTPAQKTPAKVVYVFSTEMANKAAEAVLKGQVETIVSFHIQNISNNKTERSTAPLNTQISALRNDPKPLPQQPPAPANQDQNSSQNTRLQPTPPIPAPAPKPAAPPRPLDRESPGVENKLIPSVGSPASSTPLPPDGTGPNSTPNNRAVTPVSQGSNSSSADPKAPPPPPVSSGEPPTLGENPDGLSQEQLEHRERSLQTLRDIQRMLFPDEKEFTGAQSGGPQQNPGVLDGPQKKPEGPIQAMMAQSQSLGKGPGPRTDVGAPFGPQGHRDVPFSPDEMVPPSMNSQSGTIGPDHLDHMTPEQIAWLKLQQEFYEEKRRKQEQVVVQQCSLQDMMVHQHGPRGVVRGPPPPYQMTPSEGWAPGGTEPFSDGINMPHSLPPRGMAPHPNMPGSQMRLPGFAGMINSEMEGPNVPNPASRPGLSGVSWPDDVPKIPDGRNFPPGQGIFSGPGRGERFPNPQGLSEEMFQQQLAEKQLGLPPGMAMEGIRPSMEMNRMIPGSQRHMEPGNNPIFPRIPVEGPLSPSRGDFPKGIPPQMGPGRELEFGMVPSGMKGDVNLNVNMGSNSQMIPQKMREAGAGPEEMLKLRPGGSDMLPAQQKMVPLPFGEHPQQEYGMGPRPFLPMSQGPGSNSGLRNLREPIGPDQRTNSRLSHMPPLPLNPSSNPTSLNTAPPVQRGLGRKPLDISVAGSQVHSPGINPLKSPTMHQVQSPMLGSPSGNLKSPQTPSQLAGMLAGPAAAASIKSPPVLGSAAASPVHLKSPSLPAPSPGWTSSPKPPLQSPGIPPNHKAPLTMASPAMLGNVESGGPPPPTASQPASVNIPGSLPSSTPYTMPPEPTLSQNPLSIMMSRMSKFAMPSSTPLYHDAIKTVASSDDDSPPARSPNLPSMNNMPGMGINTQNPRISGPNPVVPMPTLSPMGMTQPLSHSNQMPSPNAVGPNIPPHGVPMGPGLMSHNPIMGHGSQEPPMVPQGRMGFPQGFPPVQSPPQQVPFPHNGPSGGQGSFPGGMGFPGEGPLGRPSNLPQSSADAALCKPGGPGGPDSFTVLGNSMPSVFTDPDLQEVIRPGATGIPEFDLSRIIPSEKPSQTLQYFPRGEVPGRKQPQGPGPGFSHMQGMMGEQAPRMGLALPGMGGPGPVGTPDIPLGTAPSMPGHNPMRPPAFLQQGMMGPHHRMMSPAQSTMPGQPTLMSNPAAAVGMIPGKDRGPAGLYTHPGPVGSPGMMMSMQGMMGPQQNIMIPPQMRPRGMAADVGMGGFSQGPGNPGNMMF

Catenin beta-1 = target: T2, Catenin beta-1 (Homo sapiens, UniProt P35222); assay: Binding affinity to full length his-tagged human beta-catenin (1 to 781 residues) expressed in Escherichia coli DE3 assessed as dissociation constant by SPR analysis
T2 sequence (P35222 whole entry): T1 sequence (P35222 whole entry)

[8] = target: T1, beta-catenin-B-cell lymphoma 9 protein complex; assay: Inhibition of beta-catenin (unknown origin)/BCL9 (unknown origin) protein-protein interaction; format: protein-complex assay
[9] = Tmax in ICR mouse at 1 mg/kg, iv measured upto 24 hrs by HPLC-MS/MS analysis; format: ADME, organism-based; conditions: in vivo
[10] = Half life in ICR mouse at 1 mg/kg, iv measured upto 24 hrs by HPLC-MS/MS analysis; format: ADME, organism-based; conditions: in vivo
[11] = AUC (0 to t) in ICR mouse at 1 mg/kg, iv measured upto 24 hrs by HPLC-MS/MS analysis; format: ADME, organism-based; conditions: in vivo
[12] = Cmax in ICR mouse at 1 mg/kg, iv measured upto 24 hrs by HPLC-MS/MS analysis; format: ADME, organism-based; conditions: in vivo
[13] = Clearance in ICR mouse at 1 mg/kg, iv measured upto 24 hrs by HPLC-MS/MS analysis; format: ADME, organism-based; conditions: in vivo
[14] = Toxicity in BALB/c mouse implanted with mouse CT26 cells assessed as body weight loss at 30 mg/kg, ip measured for 14 days; format: organism-based; conditions: in vivo, 336 h, time 14 day

Structure (SMILES) | pIC50 (cells) | pIC50 [7] | pKd (Catenin beta-1) | other results
CC(C)(Oc1cccc(N2CCC[C@@H](C(=O)N(Cc3ccc(-c4cn[nH]c4)cc3)C3CC3)C2)c1)C(=O)N1CCNCC1 | 5.48 | – | – | inhibition in vivo at 30 mg/kg (CT26 [1]): 42.4%; inhibition in vivo at 30 mg/kg (CT26 [2]): 44.1%; Activity (CT26 [3]): 14.9%; Activity [4]: 5.17%; half-life at 1 h (in vitro [5]): 2.37 min; microsomal CLint at 1 h (in vitro [6]): 888 µL/min/mg
CCCC(=O)Oc1ccc([N+](=O)[O-])cc1 | – | – | – | pKi [8]: 5.68
CC(C)(Oc1cccc(N2CCC[C@@H](NC(=O)N(Cc3ccc(-c4cn[nH]c4)cc3)C3CC3)C2)c1)C(=O)N1CCOCC1 | 5.27 | – | – | –
CC(C)(Oc1cccc(N2CCC[C@H](NC(=O)N(Cc3ccc(-c4cn[nH]c4)cc3)C3CC3)C2)c1)C(=O)N1CCNCC1 | 5.36 | – | – | –
CC(C)(Oc1cccc(N2CCC[C@H](NC(=O)N(Cc3ccc(-c4cn[nH]c4)cc3)C3CC3)C2)c1)C(=O)NCC(=O)N1CCCC1CCN (stereo partly specified) | 5.28 | 5.69 | 6.19 | –
CC(C)(Oc1cccc(N2CCC[C@H](NC(=O)N(Cc3ccc(-c4cn[nH]c4)cc3)C3CC3)C2)c1)C(=O)NCCCN | < 5.00 | – | – | –

Further lines, with some results ahead:

pIC50 (cells) | pIC50 [7] | pKd (Catenin beta-1) | Structure (SMILES) | other results
5.12 | 5.74 | 6.60 | CC(C)(Oc1cccc(N2CCC[C@H](NC(=O)N(Cc3ccc(-c4cn[nH]c4)cc3)C3CC3)C2)c1)C(=O)NCCN | –
5.48 | – | – | O=C1[C@H](Cc2ccc(O)cc2)N2C(=O)CCN(C(=O)NCc3ccccc3)[C@H]2CN1Cc1cccc2ccccc12 | –
5.33 | – | – | CC(C)(Oc1cccc(N2CCC[C@@H](NC(=O)N(Cc3ccc(-c4cn[nH]c4)cc3)C3CC3)C2)c1)C(=O)N1CCNCC1 | –
5.54 | – | – | CC(C)(Oc1cccc(N2CCC[C@@H](NC(=O)N(Cc3ccc(-c4cn[nH]c4)cc3)C3CC3)C2)c1)C(=O)NCCCN | Tmax [9]: 4.8 min; half-life [10]: 40.2 min; AUC(0-t) at 24 h [11]: 430 ng·h/mL; Cmax [12]: 910 ng/mL; clearance [13]: 40 mL/min/kg; inhibition in vivo at 30 mg/kg (CT26 [1]): 56.4%; Activity [14]: Non-Toxic; half-life at 1 h (in vitro [5]): 31.5 min; microsomal CLint at 1 h (in vitro [6]): 67 µL/min/mg
5.35 | 5.41 | 7.09 | CC(C)(Oc1cccc(N2CCC[C@@H](NC(=O)N(Cc3ccc(-c4cn[nH]c4)cc3)C3CC3)C2)c1)C(=O)NCC(=O)N1CCCC1CCN (stereo partly specified) | –
5.60 | < 4.70 | 6.60 | CC(C)(Oc1cccc(N2CCC[C@@H](NC(=O)N(Cc3ccc(-c4cn[nH]c4)cc3)C3CC3)C2)c1)C(=O)NCCN | –
5.08 | – | – | CC(C)(Oc1cccc(N2CCC[C@H](NC(=O)N(Cc3ccc(-c4cn[nH]c4)cc3)C3CC3)C2)c1)C(=O)N1CCOCC1 | –
